Laboratory results published in patent US11420966B2 (ACLARIS THERAPEUTICS, INC., priority 2019, dated 2022).
Where a name gives a salt, the structure may show the parent alone.

Tests used:
[1] = test system: IFNγ stimulated STAT1 phosphorylation on Tyr701 (JAK1/2); assay: JAK1/2 cellular target modulation: IFNγ stimulated phospho-STAT1 in PBMC; type: cell-based; conditions: human PBMC, IFNγ 10 ng/ml; read-out: Infγ-STAT1 IC50
Text: (§1) JAK Cellular Target Modulation Assays
(§2) Target modulation was based upon the ability of a compound to inhibit JAK isoform specific phosphorylation of selected substrates. IL-2 stimulated STAT5 phosphorylation on Tyr694 was used to assess JAK1/3 compound selectivity. GM-CSF stimulated STAT5 phosphorylation on Tyr694 was used to assess JAK2 compound selectivity. IFNγ stimulated STAT1 phosphorylation on Tyr701 was used to assess JAK1/2 compound selectivity. IL-12 stimulated STAT4 phosphorylation on Tyr693 was used to assess JAK2/TYK2 compound selectivity. For all four assays, human PBMC from frozen stocks were thawed, pelleted, resuspended in complete media (90% RPMI, 10% heat inactivated FBS, 10 mM HEPES, 47 μM 2-ME, pen/strep) and placed in wells of a 96 well V-bottom plate at 200,000 per well in 120 μl complete media. Compounds were added as 15 μl per well of 10× working stock solutions in complete media with 1% DMSO (or medium with 1% DMSO for controls) and placed on a plate shaker in a 37° C. incubator with 5% CO2 for 1 hour with gentle shaking (setting of 3). Stimulation used the addition of soluble cytokines. For the JAK1/3 phospho-STAT5 assay, 15 μl of 10× working stock recombinant human IL-2 was added to a final concentration of 25 ng/ml. For the JAK2 phospho-STAT5 assay, 15 μl of 10× working stock recombinant human GM-CSF was added to a final concentration of 5 ng/ml. For the JAK1/2 phospho-STAT1 assay, 15 μl of 10× working stock of recombinant human IFNγ was added to a final concentration of 10 ng/ml. For the JAK2/TYK2 phospho-STAT4 assay, 15 μl of 10× working stock of recombinant human IL-12 was added to a final concentration of 1.7 ng/ml. Plates were then placed back on the plate shaker in the incubator for an additional 5, 5, 10, and 25 minutes respectively upon which the plates were removed from the incubator, sealed with a plate sealer and the cells pelleted at 400×g for 5 minutes. After pelleting, the media was removed by aspiration and the cells were lysed in assay specific cell lysis buffer. The levels of phospho-STATS were determined using a Phospho (Tyr694) STAT5a,b Whole Cell Lysate kit from Meso Scale Discovery. Levels of phospho-STAT1 were determined using a CST-PathScan Phospho-STAT1 (Tyr701) Sandwich ELISA kit. Levels of phospho-STAT4 were determined using a Phospho-STAT4 (Tyr693) Whole Cell Lysate kit from Meso Scale Discovery.

[2] = test system: IL-2 stimulated STAT5 phosphorylation on Tyr694 (JAK1/3); assay: JAK1/3 cellular target modulation: IL-2 stimulated phospho-STAT5 in PBMC; type: cell-based; conditions: human PBMC, IL-2 25 ng/ml; read-out: IL2-STAT5 IC50
Text: as §1, §2

Tyk-2 = Tyk-2 (Homo sapiens (Human), UniProt P29597); assay: Tyk-2 enzyme activity assay (Thermo Fisher SelectScreen, Z-lyte); type: biochemical; conditions: read-out: Tyk-2 Inhibition IC50
Sequence of Tyk-2 (P29597 whole entry): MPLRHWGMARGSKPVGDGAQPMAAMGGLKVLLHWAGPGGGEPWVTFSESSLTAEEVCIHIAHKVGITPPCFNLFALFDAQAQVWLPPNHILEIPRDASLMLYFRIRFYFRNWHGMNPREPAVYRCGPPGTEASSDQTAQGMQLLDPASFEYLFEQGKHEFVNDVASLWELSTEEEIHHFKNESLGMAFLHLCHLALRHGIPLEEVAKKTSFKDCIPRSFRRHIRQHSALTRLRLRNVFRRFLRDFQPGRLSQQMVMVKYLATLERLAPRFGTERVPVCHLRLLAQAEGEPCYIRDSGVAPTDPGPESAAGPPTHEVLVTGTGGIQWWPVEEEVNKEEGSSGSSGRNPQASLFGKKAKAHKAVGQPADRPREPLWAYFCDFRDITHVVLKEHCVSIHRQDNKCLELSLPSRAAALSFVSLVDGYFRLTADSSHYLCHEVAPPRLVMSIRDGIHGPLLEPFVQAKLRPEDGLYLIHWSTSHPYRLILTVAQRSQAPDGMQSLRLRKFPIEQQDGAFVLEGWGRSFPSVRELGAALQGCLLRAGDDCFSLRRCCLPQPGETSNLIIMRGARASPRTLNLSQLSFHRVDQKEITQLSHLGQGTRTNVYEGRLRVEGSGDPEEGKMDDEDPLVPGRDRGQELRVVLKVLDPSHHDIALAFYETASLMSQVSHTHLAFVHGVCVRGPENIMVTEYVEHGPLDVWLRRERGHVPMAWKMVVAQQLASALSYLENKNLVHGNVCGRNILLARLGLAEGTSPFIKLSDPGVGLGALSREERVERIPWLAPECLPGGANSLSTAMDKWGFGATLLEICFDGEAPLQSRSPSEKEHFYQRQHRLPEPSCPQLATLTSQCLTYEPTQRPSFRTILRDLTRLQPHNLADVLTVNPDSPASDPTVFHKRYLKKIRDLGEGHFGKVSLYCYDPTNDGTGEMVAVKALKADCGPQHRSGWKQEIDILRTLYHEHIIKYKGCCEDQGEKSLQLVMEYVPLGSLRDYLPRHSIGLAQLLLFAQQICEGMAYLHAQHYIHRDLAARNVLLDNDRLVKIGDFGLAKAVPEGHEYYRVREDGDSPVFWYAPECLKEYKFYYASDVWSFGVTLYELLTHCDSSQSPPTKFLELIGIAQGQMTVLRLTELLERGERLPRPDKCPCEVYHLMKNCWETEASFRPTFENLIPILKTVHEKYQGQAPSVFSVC
Procedure: (§3) JAK1, JAK2, JAK3, and Tyk-2 Enzyme Activity Assays
(§4) The inhibitory potency of candidate compounds of JAK1, JAK2, and Tyk-2 was done at Thermo Fisher Scientific in their Selectscreen using a Z-lyte assay. Following are the assay details for each enzyme.
TYK2: The 2×TYK2/Tyr 03 mixture is prepared in 50 mM HEPES pH 6.5, 0.01% BRIJ-35, 10 mM MgCl2, 1 mM EGTA, 0.02% NaN3. The final 10 μL Kinase Reaction consists of 3.75-15 ng TYK2 and 2 M Tyr 03 in 50 mM HEPES pH 7.0, 0.01% BRIJ-35, 10 mM MgCl2, 1 mM EGTA, 0.01% NaN3. After the one hour KinaseReaction incubation, 5 μL of a 1:4096 dilution of Development Reagent A is added.
(§5) Data reduction for JAK1, JAK2 and TYK2 is done the same, independent of the enzyme run. In summary, background signal is defined in the absence of enzyme and uninhibited signal is defined in the presence of vehicle (2% DMSO) alone. Compounds were evaluated in an 11 point dose-response ranging from […] to 0.34 nM. IC50 values of compounds are determined using a 4 parameter logistical fit of emission ratio as a function of the concentration of compound.

JAK1 = JAK1 (Homo sapiens (Human), UniProt P23458); assay: JAK1 enzyme activity assay (Thermo Fisher SelectScreen, Z-lyte); type: biochemical; conditions: read-out: JAK1 Inhibition IC50
Sequence of JAK1 (P23458 whole entry): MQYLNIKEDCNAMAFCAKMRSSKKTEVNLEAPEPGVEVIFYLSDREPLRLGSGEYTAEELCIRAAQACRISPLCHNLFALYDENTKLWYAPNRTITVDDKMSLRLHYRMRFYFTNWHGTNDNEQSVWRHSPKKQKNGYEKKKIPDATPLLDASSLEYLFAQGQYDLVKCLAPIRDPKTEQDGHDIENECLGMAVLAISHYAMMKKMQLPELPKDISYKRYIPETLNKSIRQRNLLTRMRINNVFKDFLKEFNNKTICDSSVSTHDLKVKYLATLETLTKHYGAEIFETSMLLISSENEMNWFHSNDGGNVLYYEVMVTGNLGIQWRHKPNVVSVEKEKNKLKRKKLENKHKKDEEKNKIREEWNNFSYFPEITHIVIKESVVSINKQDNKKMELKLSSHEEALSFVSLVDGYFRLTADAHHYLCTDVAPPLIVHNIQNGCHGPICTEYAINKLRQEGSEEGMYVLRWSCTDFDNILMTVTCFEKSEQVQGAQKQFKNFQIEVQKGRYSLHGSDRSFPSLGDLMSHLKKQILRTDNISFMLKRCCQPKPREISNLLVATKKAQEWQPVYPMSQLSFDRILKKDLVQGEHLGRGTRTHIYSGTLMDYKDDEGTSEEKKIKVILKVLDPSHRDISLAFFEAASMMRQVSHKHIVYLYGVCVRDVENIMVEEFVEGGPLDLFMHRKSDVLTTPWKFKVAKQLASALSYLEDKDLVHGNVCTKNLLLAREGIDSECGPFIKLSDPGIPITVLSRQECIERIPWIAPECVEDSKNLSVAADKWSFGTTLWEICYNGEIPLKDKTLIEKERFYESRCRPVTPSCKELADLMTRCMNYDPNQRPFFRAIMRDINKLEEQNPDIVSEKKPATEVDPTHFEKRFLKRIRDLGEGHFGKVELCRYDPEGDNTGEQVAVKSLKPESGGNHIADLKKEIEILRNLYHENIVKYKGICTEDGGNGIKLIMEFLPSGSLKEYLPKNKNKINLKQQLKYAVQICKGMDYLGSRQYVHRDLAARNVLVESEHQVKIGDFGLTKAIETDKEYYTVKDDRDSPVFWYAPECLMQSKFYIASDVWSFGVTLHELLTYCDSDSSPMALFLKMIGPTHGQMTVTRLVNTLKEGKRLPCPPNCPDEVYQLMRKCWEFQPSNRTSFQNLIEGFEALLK
Procedure: as §3, §4
JAK: The 2×JAK-enzyme/Tyr 06 mixture is prepared in 50 mM HEPES pH 6.5, 0.01% BRIJ-35, 10 mM MgCl2, 1 mM EGTA, 0.02% NaN3. The final 10 μL of the Kinase Reaction consists of 21.2-91.5 ng JAK and 2 M Tyr 06 in 50 mM HEPES pH 7.0, 0.01% BRIJ-35, 10 mM MgCl2, 1 mM EGTA, 0.01% NaN3. After the one hour Kinase Reaction incubation, 5 μL of a 1:128 dilution of Development Reagent is added.
as §5

JAK2 = JAK2 (Homo sapiens (Human), UniProt O60674); assay: JAK2 enzyme activity assay (Thermo Fisher SelectScreen, Z-lyte); type: biochemical; conditions: read-out: JAK2 Inhibition IC50
Sequence of JAK2 (O60674 whole entry): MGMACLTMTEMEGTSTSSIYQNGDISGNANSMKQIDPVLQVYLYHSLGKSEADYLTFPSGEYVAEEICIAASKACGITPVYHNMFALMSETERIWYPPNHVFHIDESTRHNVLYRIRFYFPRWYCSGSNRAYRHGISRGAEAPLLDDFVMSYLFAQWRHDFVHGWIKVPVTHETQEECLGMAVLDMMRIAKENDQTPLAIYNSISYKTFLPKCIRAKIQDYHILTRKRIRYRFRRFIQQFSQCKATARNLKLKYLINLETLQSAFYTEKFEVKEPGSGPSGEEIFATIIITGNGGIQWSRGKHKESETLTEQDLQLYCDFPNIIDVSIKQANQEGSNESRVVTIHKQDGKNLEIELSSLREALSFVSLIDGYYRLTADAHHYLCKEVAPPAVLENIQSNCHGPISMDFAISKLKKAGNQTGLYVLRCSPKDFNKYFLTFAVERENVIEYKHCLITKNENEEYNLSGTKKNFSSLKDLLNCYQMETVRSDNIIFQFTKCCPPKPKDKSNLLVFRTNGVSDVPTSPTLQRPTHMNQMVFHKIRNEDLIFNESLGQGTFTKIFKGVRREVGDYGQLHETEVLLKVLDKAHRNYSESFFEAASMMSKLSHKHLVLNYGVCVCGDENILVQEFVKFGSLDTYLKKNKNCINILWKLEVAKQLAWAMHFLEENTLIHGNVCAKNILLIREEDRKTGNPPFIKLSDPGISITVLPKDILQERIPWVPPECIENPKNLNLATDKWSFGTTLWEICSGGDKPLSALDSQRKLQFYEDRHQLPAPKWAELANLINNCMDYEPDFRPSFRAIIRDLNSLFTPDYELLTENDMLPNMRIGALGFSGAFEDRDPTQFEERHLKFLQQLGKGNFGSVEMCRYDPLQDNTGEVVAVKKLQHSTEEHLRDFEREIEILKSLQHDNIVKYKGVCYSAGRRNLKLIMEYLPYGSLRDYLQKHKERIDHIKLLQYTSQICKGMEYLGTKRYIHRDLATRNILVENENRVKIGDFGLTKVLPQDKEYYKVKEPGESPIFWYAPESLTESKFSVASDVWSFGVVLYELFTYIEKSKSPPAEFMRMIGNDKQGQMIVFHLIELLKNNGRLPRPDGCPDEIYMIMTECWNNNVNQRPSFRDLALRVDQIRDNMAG
Procedure: as §3, §4
JAK2: The 2×JAK2/Tyr 06 mixture is prepared in 50 mM HEPES pH 7.5, 0.01% BRIJ-35, 10 mM MgCl2, 1 mM EGTA. The final 10 μL Kinase Reaction consists of 0.12-0.5 ng JAK2 and 2 M Tyr 06 in 50 mM HEPES pH 7.5, 0.01% BRIJ-35, 10 mM MgCl2, 1 mM EGTA. After the one hour Kinase Reaction incubation, 5 μL of a 1:128 dilution of Development Reagent A is added.
as §5

[3] = test system: IL-12 stimulated STAT4 phosphorylation on Tyr693 (JAK2/TYK2); assay: JAK2/TYK2 cellular target modulation: IL-12 stimulated phospho-STAT4 in PBMC; type: cell-based; conditions: human PBMC, IL-12 1.7 ng/ml; read-out: IL12-STAT4 IC50
Text: as §1, §2

JAK3 (a.a. 781-1124) = JAK3 (a.a. 781-1124) (Homo sapiens (Human), UniProt P52333); assay: JAK3 enzyme activity assay (SRCtide phosphorylation, Caliper); type: biochemical; conditions: 1 uM ATP; read-out: JAK3 Inhibition IC50
Sequence of JAK3 (a.a. 781-1124) (P52333 781-1124): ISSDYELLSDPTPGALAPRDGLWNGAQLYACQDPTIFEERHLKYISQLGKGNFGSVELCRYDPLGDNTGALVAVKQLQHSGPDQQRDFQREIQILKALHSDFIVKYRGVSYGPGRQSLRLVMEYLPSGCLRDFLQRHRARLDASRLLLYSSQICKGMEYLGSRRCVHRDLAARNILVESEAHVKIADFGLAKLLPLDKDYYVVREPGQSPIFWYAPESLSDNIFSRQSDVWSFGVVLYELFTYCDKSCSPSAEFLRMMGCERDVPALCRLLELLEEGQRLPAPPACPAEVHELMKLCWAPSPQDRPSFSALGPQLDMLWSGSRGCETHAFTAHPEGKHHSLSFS
Procedure: as §3
Kinase reactions were run in a 384-well Greiner plate with 2% final DMSO concentration under the buffer conditions of 20 mM HEPES, pH 7.5, 10 mM MgCl2, 0.01% BSA, and 0.0005% Tween-20. The kinase reaction components were 2.5 nM JAK3, 1 μM SRCtide peptide and 1 uM ATP. Examples were tested in dose-response starting at 2 M (11 concentrations, 3-fold serial dilution, duplicate reactions). The reactions were incubated at room temperature for 40 minutes, then stopped by adding a 1:1 volume of 30 mM EDTA in 20 mM HEPES, pH 7.5 (15 mM EDTA final). After the reaction was stopped, the phosphorylated and unphosphorylated peptides were separated and quantified using a Caliper LC3000/EZ-Reader system and HTS Well Analyzer Software (Caliper, A PerkinElmer Company, Hopkinton, Mass.). GraFit (Erithacus Software Ltd., Horley, U.K.) was used to calculate inhibitor potency by fitting dose-response data to the 4-parameter logistical IC50 equation.

IC50 [1] [nM]	IC50 [2] [nM]	IC50 (Tyk-2) [nM]	IC50 (JAK1) [nM]	IC50 (JAK2) [nM]	IC50 [3] [nM]	IC50 (JAK3 (a.a. 781-1124)) [nM]	SMILES
	100 to 1000	10 to 100	≤ 10	10 to 100	> 1000	≤ 10	CNC(=O)c1csc(-c2cnc3[nH]ccc3c2N[C@@H]2CCCN(C(=O)CC#N)C2)n1 [Example 35, (R)-2-(4-((1-(2-cyanoacetyl)piperidin-3-yl)amino)-1H-pyrrolo[2,3-b]pyridin-5-yl)-N-methylthiazole-4-carboxamide]
> 1000	> 1000	10 to 100	10 to 100	≤ 10		≤ 10	CNC(=O)c1cnc(-c2cnc3[nH]ccc3c2N[C@@H]2CCCN(C(=O)CC#N)C2)o1 [Example 39, (R)-2-(4-((1-(2-cyanoacetyl)piperidin-3-yl)amino)-1H-pyrrolo[2,3-b]pyridin-5-yl)-N-methyloxazole-5-carboxamide]
≤ 100	≤ 100	≤ 10	≤ 10	≤ 10		≤ 10	CNC(=O)c1cnc(-c2cnc3[nH]ccc3c2N[C@@H]2CCCN(C(=O)CC#N)C2)s1 [Example 53, (R)-2-(4-((1-(2-cyanoacetyl)piperidin-3-yl)amino)-1H-pyrrolo[2,3-b]pyridin-5-yl)-N-methylthiazole-5-carboxamide]
> 1000	100 to 1000	100 to 1000	≤ 10	100 to 1000		10 to 100	CNCCOc1cccc(-c2cnc3[nH]ccc3c2N[C@@H]2CCCN(C(=O)CC#N)C2)n1 [Example 58, (R)-3-(3-((5-(6-(2-(methylamino)ethoxy)pyridin-2-yl)-1H-pyrrolo[2,3-b]pyridin-4-yl)amino)piperidin-1-yl)-3-oxopropanenitrile hydrochloride]
> 1000	100 to 1000	> 1000	≤ 10	100 to 1000		100 to 1000	CS(=O)(=O)c1cccc(-c2cnc3[nH]ccc3c2N[C@@H]2CCCN(C(=O)CC#N)C2)c1 [Example 59, (R)-3-(3-((5-(3-(methylsulfonyl)phenyl)-1H-pyrrolo[2,3-b]pyridin-4-yl)amino)piperidin-1-yl)-3-oxopropanenitrile]
100 to 1000	≤ 100	10 to 100	≤ 10	10 to 100		≤ 10	CC(=O)c1cnc(-c2cnc3[nH]ccc3c2N[C@@H]2CCCN(C(=O)CC#N)C2)o1 [Example 66, (R)-3-(3-((5-(5-acetyloxazol-2-yl)-1H-pyrrolo[2,3-b]pyridin-4-yl)amino)piperidin-1-yl)-3-oxopropanenitrile]

Continued, molecule first:

SMILES	IC50 [1] [nM]	IC50 [2] [nM]	IC50 (Tyk-2) [nM]	IC50 (JAK1) [nM]	IC50 (JAK2) [nM]	IC50 [3] [nM]	IC50 (JAK3 (a.a. 781-1124)) [nM]
C[C@H]1C[C@@H](Nc2c(-c3ncco3)cnc3[nH]ccc23)CN(C(=O)CC#N)C1 (single isomer, unassigned) [Example 10]	≤ 100	≤ 100	≤ 10	≤ 10	≤ 10	≤ 100	≤ 10
N#CCC(=O)N1CCC[C@@H](Nc2c(-c3ccn(C(F)F)n3)cnc3[nH]ccc23)C1 [Example 2, (R)-3-(3-((5-(1-(difluoromethyl)-1H-pyrazol-3-yl)-1H-pyrrolo[2,3-b]pyridin-4-yl)amino)piperidin-1-yl)-3-oxopropanenitrile]	100 to 1000	≤ 100	10 to 100	≤ 10	10 to 100	100 to 1000	≤ 10
O[C@H]1CC[C@@H](Nc2c(-c3ccccn3)cnc3[nH]ccc23)C1 [Example 12, (1S,3R)-3-((5-(pyridin-2-yl)-1H-pyrrolo[2,3-b]pyridin-4-yl)amino)cyclopentan-1-ol]	> 1000	100 to 1000	100 to 1000	100 to 1000	100 to 1000		10 to 100
N#CCC(=O)N1CCC[C@@H](Nc2c(-c3nc(C(N)=O)co3)cnc3[nH]ccc23)C1 [Example 14, (R)-2-(4-((1-(2-cyanoacetyl)piperidin-3-yl)amino)-1H-pyrrolo[2,3-b]pyridin-5-yl)oxazole-4-carboxamide]	> 1000	100 to 1000	10 to 100	≤ 10	10 to 100		≤ 10
N#CCC(=O)N1CCC[C@@H](Nc2c(-c3cncs3)cnc3[nH]ccc23)C1 [Example 16, (R)-3-oxo-3-(3-((5-(thiazol-5-yl)-1H-pyrrolo[2,3-b]pyridin-4-yl)amino)piperidin-1-yl)propanenitrile]	> 1000	100 to 1000	100 to 1000	10 to 100	100 to 1000		10 to 100
N#CCC(=O)N1CCC[C@@H](Nc2c(C#N)cnc3[nH]ccc23)C1 [Example 25, (R)-4-((1-(2-cyanoacetyl)piperidin-3-yl)amino)-1H-pyrrolo[2,3-b]pyridine-5-carbonitrile]	100 to 1000	≤ 100	10 to 100	≤ 10	10 to 100		10 to 100
